Assay results from publication PMC4865847, “Putative histidine kinase inhibitors with antibacterial effect against multi-drug resistant clinical isolates identified by in vitro and in silico screens” (Scientific Reports, 2016).
≈ marks a conversion by molar mass, not a printed value.

Experiments:
[1] = system: Gram negative E. coli DC2; design: method as in PMID 25531939; conditions: cited from earlier work
[2] = system: S. pneumoniae VicK; design: method as in PMID 25531939; conditions: cited from earlier work
[3] = system: Gram-positive B. subtilis; design: method as in PMID 25531939; conditions: cited from earlier work
[4] = biological target: T1, HK WalK (DHp and CA domain) (Streptococcus pneumoniae, UniProt Q8DPL8); assay: Differential scanning fluorimetry (DSF), WalK; type: binding
T1 construct: WalK (amino acids from 208 to 449); N-terminal His6-3C site of vector pOPINF (own knowledge of the vector); made in house; host or cells: E. coli RIL
T1 sequence (Q8DPL8 208-449): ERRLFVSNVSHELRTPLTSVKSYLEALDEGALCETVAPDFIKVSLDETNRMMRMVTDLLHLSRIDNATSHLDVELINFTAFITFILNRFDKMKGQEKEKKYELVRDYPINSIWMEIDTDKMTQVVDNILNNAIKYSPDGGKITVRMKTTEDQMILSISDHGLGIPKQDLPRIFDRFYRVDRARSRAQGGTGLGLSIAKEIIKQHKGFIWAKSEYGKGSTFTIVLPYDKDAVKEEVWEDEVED
Experimental: (§1) To monitor protein unfolding, the fluorescent dye Sypro orange was used[26]. Differential scanning fluorimetry (DSF) experiments were conducted in the iCycleriQ Real Time Detection System (Bio-Rad, Hercules, CA). Solutions of 20 μl of 0.1 mg/ml protein (final concentration), 200 μM fragment cocktails or individual fragments (final concentration), 10X sypro orange (final concentration) and buffer (100 mM TrisCl pH 8, 150 mM NaCl) were added to the wells of the 96-well iCycler iQ PCR plate. The plate was heated from 20 to 85 or 99 °C at a heating rate of 1 °C/min. The fluorescent intensity was measured with Ex/Em: 490/530 nm. Prism GraphPad v.5 was used for curve fitting and statistical analysis.

[5] = biological target: T2, E. coli PhoR (PhoR^E) (Escherichia coli, UniProt P08400); assay: Aggregation analysis by native-PAGE, PhoR^E; conditions: 2 mM (S5 and S6 5 mM), 10% DMSO
T2 construct: The catalytic portion (DHp and CA domain) of E. coli PhoR (PhoR^E); made in house; host or cells: E. coli RIL
T2 sequence (P08400 210-425): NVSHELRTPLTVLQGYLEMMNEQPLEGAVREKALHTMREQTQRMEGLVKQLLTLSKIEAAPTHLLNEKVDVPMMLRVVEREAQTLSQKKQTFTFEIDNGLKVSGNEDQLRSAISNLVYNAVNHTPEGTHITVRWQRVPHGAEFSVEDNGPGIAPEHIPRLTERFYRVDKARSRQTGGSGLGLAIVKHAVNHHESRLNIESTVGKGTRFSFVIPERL
Experimental: (§2) E. coli PhoR and EnvZ, and S. aureus PhoR ([…], final concentration) were prepared in kinase buffer. […] DMSO in the assays was maintained to a final concentration 10% (v/v). After 30 min of incubation at room temperature Native polyacrylamide gel electrophoresis (Native-PAGE) loading buffer was added and samples loaded. Coomassie blue staining was used for protein visualization.

[6] = biological target: T3, E. coli EnvZ (Escherichia coli, UniProt P0AEJ4); assay: Aggregation analysis by native-PAGE, EnvZ; conditions: 2 mM, 10% DMSO
T3 construct: The catalytic portion (DHp and CA domain) of E. coli PhoR (PhoR^E), E. coli EnvZ; made in house; host or cells: E. coli RIL
T3 sequence (P0AEJ4 240-440): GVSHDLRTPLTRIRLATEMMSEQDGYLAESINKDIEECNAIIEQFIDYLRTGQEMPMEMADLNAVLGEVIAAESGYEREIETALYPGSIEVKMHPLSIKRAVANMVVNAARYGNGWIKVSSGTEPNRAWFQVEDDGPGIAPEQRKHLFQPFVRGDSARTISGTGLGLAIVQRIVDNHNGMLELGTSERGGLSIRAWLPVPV
Experimental: as §2

[7] = biological target: T4, S. pneumoniae WalK (Streptococcus pneumoniae, UniProt Q8DPL8); assay: In vitro autophosphorylation kinase assay with γ-32P-ATP, WalK; type: biochemical
T4 construct: WalK (amino acids from 208 to 449); N-terminal His6-3C site of vector pOPINF (own knowledge of the vector); made in house; host or cells: E. coli RIL
T4 sequence (Q8DPL8 208-449): as the sequence (Q8DPL8 208-449) above
Outline: (§3)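 Histidine kinase (0.12 mg/ml, ≈4 μM) incubated with up to 20 mM fragment in 50 mM Tris HCl pH 8.5, 50 mM KCl, 5 mM MgCl2, 0.5 mM EDTA, 0.1 mM DTT; started with 0.1 μCi/μl γ-32P-ATP (0.03–0.06 μM ATP final). Phosphoprotein quantified by SDS-PAGE and phosphor-imaging, curve-fitted; DMSO controls.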

[8] = biological target: T2, E. coli PhoR (PhoR^E); assay: In vitro autophosphorylation kinase assay with γ-32P-ATP, PhoR^E; type: biochemical; conditions: autophosphorylation, one time point (30 sec), 10% DMSO; read-out: IC50 PhoR^E
Outline: as §3

[9] = system: Staphylococcus aureus; assay: Antibacterial susceptibility testing (MIC/MBC), S. aureus; type: cell-based; conditions: Staphylococcus aureus, DSM20231, strain DSM 20231
Experimental: (§4) Minimal inhibitory concentrations (MICs) were determined following a standard double-dilution method. […] For S. pneumoniae MICs were determined by adapting the standard double-dilution method to anaerobic conditions and of this microorganism (use of Todd Hewitt Yeast extract with 200 U/mL of catalase and continuous monitoring of growth).

[10] = biological target: S. aureus PhoR (PhoR^S) (Staphylococcus aureus, UniProt Q2FXN7); assay: Aggregation analysis by native-PAGE, PhoR^S; conditions: 2 mM (S5 and S6 5 mM), 10% DMSO
Sequence of S. aureus PhoR (PhoR^S) (Q2FXN7 entry or part of it): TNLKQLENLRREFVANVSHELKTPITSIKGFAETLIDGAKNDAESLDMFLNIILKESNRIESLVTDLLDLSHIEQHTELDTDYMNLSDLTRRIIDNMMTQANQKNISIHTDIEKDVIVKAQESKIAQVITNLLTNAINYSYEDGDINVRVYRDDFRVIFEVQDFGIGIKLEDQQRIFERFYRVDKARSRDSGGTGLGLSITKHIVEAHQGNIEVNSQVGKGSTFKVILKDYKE
Experimental: as §2

[11] = system: Staphylococcus epidermidis; assay: Antibacterial susceptibility testing (MIC/MBC), S. epidermidis; type: cell-based; conditions: Staphylococcus epidermidis, DSM20044, strain DSM 20044; read-out: MIC S. epidermidis DSM 20044
Experimental: as §4

[12] = system: Escherichia coli; assay: Antibacterial susceptibility testing (MIC/MBC), E. coli; type: cell-based; conditions: Escherichia coli, strain CFT 073; read-out: MIC E. coli CFT 073
Experimental: as §4

[13] = system: HK NblS (CA domain); assay: Differential scanning fluorimetry (DSF), NblS; type: binding, Synechococcus sp. PCC 7942
Experimental: as §1

[14] = system: Gram positive strains; conditions: cited from earlier work
[15] = system: S. epidermidis YycG; design: method as in PMID 24737057; conditions: read-out: IC50 S. epidermidis YycG (WalK) autophosphorylation; cited from earlier work
[16] = system: E. coli; design: method as in PMID 25561178; conditions: cited from earlier work

Nc1nc2ccc(Oc3ccc4nc(N)sc4c3)cc2s1 [Compound 11]
MIC Gram negative [1]: ≥ 32 µg/mL | MICs for the Gram negative E. coli DC2 [1]: 32 to 64 µg/mL | IC50 [2]: 75 µM | MIC Gram positive [3]: ≥ 49 µg/mL | MICs for the Gram-positive B. subtilis [3]: 49 to 64 µg/mL

Oc1ccc2c(c1)[nH]c1ccccc12 [F2, 2-hydroxy-carbazole]
increase of WalK Tm [4]: 3.9 °C | HK aggregation, PhoR^E [5]: do not cause HK aggregation | HK aggregation, EnvZ [6]: do not cause HK aggregation | IC50 ([7]; autophosphorylation, one time point (30 sec), 10% DMSO, read-out: IC50 WalK): > 2000 µM | inhibitory capacity for WalK autophosphorylation activity ([7]; single concentration 5 mM, 30 sec): weak inhibitory capacity | IC50 [8]: 300 µM | MBC ([9]; read-out: MBC S. aureus DSM 20231): > 500 µg/mL | MIC ([9]; read-out: MIC S. aureus DSM 20231): 31 µg/mL (≈ 169 µM) | HK aggregation, PhoR^S [10]: do not cause HK aggregation | MIC [11]: > 500 µg/mL | MIC [12]: > 500 µg/mL | increase of NblS Tm [13]: 2.2 °C

O=C(O)c1ccc(-c2ccc(/C=C3\S/C(=N\c4ccccc4)N(c4ccc(F)cc4)C3=O)s2)cc1 [H2-81]
MIC Gram positive [14]: ≥ 0.75 µg/mL | IC50 [15]: 24 µM

teixobactin
antibacterial effect (MIC) against E. coli [16]: 2 to 25 µg/mL
